In data set [1] the target is PDE1 (Ca2+/calmodulin-dependent) from bovine brain. Description: Inhibition of the PDE isoenzymes: PDE1. The format is biochemical. The settings on record: Ca2+ (1 mM) and calmodulin (100 nM), cGMP as substrate. As to the method: (§1) The PDE activity was determined according to Thompson et al. (1) with a few modifications (2). The test samples contained 40 mM tris HCl (pH 7.4), 5 mM MgCl2, 0.5 μM cAMP or cGMP, [^3H] cAMP or [^3H]cGMP (about 50,000 cpm/sample), the PDE isoenzyme-specific additives described in greater detail below, the given concentrations of inhibitor and an aliquot of the enzyme solution in a total sample volume of […]. […] After preincubation at 37° C. for 5 minutes, the reaction was started by addition of the substrate (cAMP or cGMP). The samples were incubated at 37° C. for a further 15 min. The reaction was stopped by addition of 50 μl of 0.2N HCl. After cooling on ice for 10 minutes and addition of 25 μg of 5′-nucleotidase (snake venom from Crotalus atrox), incubation was carried out again for 10 min. at 37° C. and the samples were then applied to QAE Sephadex A-25 columns. The columns were eluted with 2 ml of 30 mM ammonium formate (pH 6.0). The radioactivity of the eluate was measured and corrected by the corresponding blank values. The proportion of hydrolyzed nucleotide in no case exceeded 20% of the original substrate concentration.
PDE1 (Ca^2+/calmodulin-dependent) from bovine brain: the inhibition of this isoenzyme was investigated in the presence of Ca^2+ (1 mM) and calmodulin (100 nM) using cGMP as a substrate (3).
(§2) The IC50 values were determined from the concentration inhibition curves by nonlinear regression using the program GraphPad InPlot™ (GraphPad Software Inc., Philadelphia, USA).

For data set [2], the target named is T1, PDE2 (cGMP-stimulated) from rats' hearts (Rattus norvegicus, UniProt Q01062).
T1 construct: PDE2 (cGMP-stimulated) from rats' hearts was purified chromatographically; from tissue; host or cells: rat heart
T1 sequence (Q01062 1-928): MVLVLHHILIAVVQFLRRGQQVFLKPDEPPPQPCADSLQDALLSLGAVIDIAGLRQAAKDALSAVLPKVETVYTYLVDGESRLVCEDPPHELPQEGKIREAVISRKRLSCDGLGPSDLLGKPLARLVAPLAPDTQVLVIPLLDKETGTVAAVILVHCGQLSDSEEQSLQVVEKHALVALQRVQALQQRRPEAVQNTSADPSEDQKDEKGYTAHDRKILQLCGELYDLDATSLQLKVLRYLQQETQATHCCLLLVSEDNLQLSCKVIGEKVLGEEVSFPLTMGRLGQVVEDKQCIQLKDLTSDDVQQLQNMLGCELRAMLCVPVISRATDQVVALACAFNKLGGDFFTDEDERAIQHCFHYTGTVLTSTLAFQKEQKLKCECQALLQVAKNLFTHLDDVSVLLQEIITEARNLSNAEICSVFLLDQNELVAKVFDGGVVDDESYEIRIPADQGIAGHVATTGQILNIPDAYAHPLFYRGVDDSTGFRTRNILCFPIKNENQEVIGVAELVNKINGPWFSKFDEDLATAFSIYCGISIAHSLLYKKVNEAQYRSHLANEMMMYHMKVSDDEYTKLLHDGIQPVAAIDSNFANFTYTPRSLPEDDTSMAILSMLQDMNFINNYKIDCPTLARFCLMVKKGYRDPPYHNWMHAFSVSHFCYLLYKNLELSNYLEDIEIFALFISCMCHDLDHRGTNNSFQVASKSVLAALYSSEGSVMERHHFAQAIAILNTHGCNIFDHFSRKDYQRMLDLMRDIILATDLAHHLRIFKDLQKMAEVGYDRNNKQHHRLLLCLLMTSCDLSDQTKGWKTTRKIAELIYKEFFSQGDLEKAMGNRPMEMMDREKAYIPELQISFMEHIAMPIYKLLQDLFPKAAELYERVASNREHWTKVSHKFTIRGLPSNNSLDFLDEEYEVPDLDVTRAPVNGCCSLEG
Nature of the data set: Inhibition of the PDE isoenzymes: PDE2. The class given is biochemical. The note with it: in presence of cGMP (5 μM), cAMP as substrate, read-out: PDE2 inhibitory concentration as -log IC50 (converted). The method, then:
as §1
PDE2 (cGMP-stimulated) from rats' hearts was purified chromatographically [Schudt et al. (4)] and investigated in the presence of cGMP (5 μM) using cAMP as a substrate.
as §2

The target of data set [3] is T2, PDE3 (cGMP-inhibited), homogenates of human blood platelets (Homo sapiens, UniProt Q14432).
T2 construct: were investigated in homogenates of human blood platelets; from tissue; host or cells: human blood platelets (homogenate)
Description: Inhibition of the PDE isoenzymes: PDE3. The class given is biochemical. The settings on record: cAMP as substrate, read-out: PDE3 inhibitory concentration as -log IC50 (converted). The method, then: as §1
(§3) PDE3 (cGMP-inhibited) and PDE5 (cGMP-specific) were investigated in homogenates of human blood platelets [Schudt et al. (4)] using cAMP or cGMP as a substrate.
as §2

In data set [4] the target is PDE4 (cAMP-specific), cytosol of human polymorphonuclear leucocytes (PMNL). Description: Inhibition of the PDE isoenzymes: PDE4. The class given is biochemical. The note with it: cAMP as substrate, motapizone (1 μM) present. As to the method: as §1
PDE4 (cAMP-specific) was investigated in the cytosol of human polymorphonuclear leucocytes (PMNL) [isolated from leucocyte concentrates, see Schudt et al. (5)] using cAMP as a substrate. The PDE3 inhibitor motapizone (1 μM) was used in order to suppress the PDE3 activity emanating from contaminating blood platelets.
as §2

The target in data set [5] is T3, PDE5 (cGMP-specific), homogenates of human blood platelets (Homo sapiens, UniProt O76074).
T3 construct: were investigated in homogenates of human blood platelets; from tissue; host or cells: human blood platelets (homogenate)
Description: Inhibition of the PDE isoenzymes: PDE5. The class given is biochemical. The settings on record: cGMP as substrate, read-out: PDE5 inhibitory concentration as -log IC50 (converted). As to the method: as §1, §3, §2

The test system of the next data set is human PMNL. Nature of the data set: Inhibition of the formation of reactive oxygen species (FMLP-stimulated chemiluminescence) in human PMNL. The format is cell-based. The settings on record: 0.05 h, FMLP 100 nM, luminol-potentiated chemiluminescence, AUC over 3 min, read-out: Inhibition of the FMLP-stimulated chemiluminiscence in human PMNL in vitro, inhibitory concentration as -log IC50 (converted).
Source text: In the investigation of PDE4 inhibition at the cellular level, the activation of inflammatory cells has particular importance. An example which may be mentioned is the FMLP (N-formylmethionylleucylphenylalanine)-induced superoxide production of neutrophilic granulocytes, which can be measured as luminol-potentiated chemiluminescence [McPhail L C, Strum S L, Leone P A and Sozzani S, The neutrophil respiratory burst mechanism. In “Immunology Serie” 1992, 57, 47-76; ed. Coffey R G (Marcel Decker, Inc., New York-Basel-Hong Kong)].
The formation of reactive oxygen species determined by means of luminol-potentiated chemiluminescence (5) and the isolation of the PMNL from human blood (6) was carried out essentially as described in (5) and (6): equal-size portions (0.5 ml) of the cell suspension (10^7 cells/ml) were preincubated at 37° C. for 5 min. In the absence or presence of the compounds to be investigated in a buffer solution containing 140 mM NaCl, 5 mM KCl, 10 mM HEPES, 1 mM CaCl2/MgCl2, 1 mg/ml of glucose, 0.05% (w/v) BSA (bovine serum albumin), 10 μM luminol and 4 μM microperoxidase. […]
as §2

T2 sequence (Q14432 whole entry): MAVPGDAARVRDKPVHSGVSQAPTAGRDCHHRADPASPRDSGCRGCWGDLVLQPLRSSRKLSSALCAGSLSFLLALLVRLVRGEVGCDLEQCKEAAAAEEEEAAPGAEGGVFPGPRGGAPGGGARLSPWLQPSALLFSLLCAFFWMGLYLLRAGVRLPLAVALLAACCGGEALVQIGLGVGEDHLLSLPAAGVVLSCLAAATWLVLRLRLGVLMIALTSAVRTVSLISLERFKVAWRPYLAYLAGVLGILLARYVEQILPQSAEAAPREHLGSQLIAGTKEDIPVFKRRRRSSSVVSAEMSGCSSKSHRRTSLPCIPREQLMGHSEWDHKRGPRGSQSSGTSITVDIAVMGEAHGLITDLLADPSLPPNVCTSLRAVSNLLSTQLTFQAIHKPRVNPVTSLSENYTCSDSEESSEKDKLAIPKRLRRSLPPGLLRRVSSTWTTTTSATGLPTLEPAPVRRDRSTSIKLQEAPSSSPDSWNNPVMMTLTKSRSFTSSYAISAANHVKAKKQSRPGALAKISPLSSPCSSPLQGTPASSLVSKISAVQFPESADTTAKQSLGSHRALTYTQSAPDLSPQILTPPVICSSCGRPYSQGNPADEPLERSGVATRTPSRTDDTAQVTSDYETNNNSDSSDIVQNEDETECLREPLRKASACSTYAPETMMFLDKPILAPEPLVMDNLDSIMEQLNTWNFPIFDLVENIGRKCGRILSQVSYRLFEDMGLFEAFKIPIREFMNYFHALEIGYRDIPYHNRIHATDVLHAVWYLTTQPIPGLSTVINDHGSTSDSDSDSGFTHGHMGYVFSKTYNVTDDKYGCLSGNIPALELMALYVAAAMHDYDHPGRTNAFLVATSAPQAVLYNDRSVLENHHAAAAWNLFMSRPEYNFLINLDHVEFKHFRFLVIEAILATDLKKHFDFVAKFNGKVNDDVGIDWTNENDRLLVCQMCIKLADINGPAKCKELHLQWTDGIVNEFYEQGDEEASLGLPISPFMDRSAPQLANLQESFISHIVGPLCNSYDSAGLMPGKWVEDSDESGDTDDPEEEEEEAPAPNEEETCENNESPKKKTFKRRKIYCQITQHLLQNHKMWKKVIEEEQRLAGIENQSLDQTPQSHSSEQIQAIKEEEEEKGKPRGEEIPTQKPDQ

As to `CCOc1cc2c(cc1OC)C(c1ccc(NS(=O)(=O)c3ccc(C)cc3)cc1)=N[C@H]1CCN(C)C[C@@H]21` (relative stereo) [Compound 2, (−)-cis-9-Ethoxy-8-methoxy-2-methyl-6-[4-(p-toluenesulfonamido)-phenyl]-1,2,3,4,4a,10b-hexahydro-benzo[c][1,6]naphthyridine], the melting point (usually the temperature, or range, at which the solid turns liquid) lay within 207 to 219 °C. Also, in data set [1], the “PDE1 inhibitory concentration as -log IC50” value came out at 5.14. Moreover, the IC50 in data set [2] is 407 nM. The IC50 in data set [3] is 52.5 nM. In data set [4], the “PDE4 inhibitory concentration as -log IC50” value was determined as 9.00. Also, the IC50 in data set [5] was 182 nM.

In the case of `CCOc1cc2c(cc1OCC)[C@@H]1CN(C)CC[C@@H]1N=C2c1ccc(NS(=O)(=O)c2ccc(C)cc2)cc1` (relative stereo) [Compound 1, (−)-cis-8,9-Diethoxy-2-methyl-6-[4-(p-toluenesulfonamido)-phenyl]-1,2,3,4,4a,10b-hexahydro-benzo[c][1,6]naphthyridine], the melting point fell in the range of 267 to 268 °C. The “PDE1 inhibitory concentration as -log IC50” value in data set [1] was less than 5. Also, the IC50 in data set [2] was 1100 nM. Also, in data set [3], the IC50 is 79.4 nM. The “PDE4 inhibitory concentration as -log IC50” value in data set [4] is listed as 8.60. Further, the IC50 in data set [5] is 91.2 nM. Moreover, in the data set with human PMNL, the IC50 was 40.7 nM.

Take `COc1cc2c(cc1OC)[C@@H]1CN(C)CC[C@@H]1N=C2c1ccc(NS(=O)(=O)c2ccc(C)cc2)cc1` (relative stereo) [Tolafentrine, (−)-cis-8,9-Dimethoxy-2-methyl-6-[4-(p-toluenesulfonamido)-phenyl]-1,2,3,4,4a,10b-hexahydrobenzo[c][1,6]naphthyridine, reference compound]: in data set [1], the “PDE1 inhibitory concentration as -log IC50” value is reported as 4.75. The IC50 in data set [2] was 813 nM; in data set [3], 95.5 nM; in data set [5] it was 2340 nM; in the data set with human PMNL, 851 nM. Moreover, the “PDE4 inhibitory concentration as -log IC50” value in data set [4] was found to be 7.20.

Values taken from patent US6384047B1, “Benzonaphthyridine” (Byk Gulden Lomberg Chemische Fabrik GmbH, priority 1997, dated 2002).
